Values joined by “and” are separate entries in the source; they are usually repeats but may differ in a detail not shown here. Identical values can stand only once.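 1) Cells in 96-well plates. 2) Compound, 48 h, 5 concentrations. 3) Linear interpolation between surrounding doses. 4) Unreached endpoint = highest concentration. GI50: concentration for 50% inhibition of growth. At the TGI there is no net growth.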 Numbered stars: 1 amine (or outer) side, 2 acyl side, 3 side chain; on linkers, the order of the positions; unused ones are H or OH. Bridge positions count the residues as written; N and C are the ends. Square brackets hold non-standard residues; d marks the D form. Peptide text beside a SMILES is read from it. I, II: the chains in the order shown. Actinocin(1to9) = Cc1c2oc3c(C)ccc(C(=O)[*:2])c3nc-2c(C(=O)[*:1])c(N)c1=O; NMeV = CN[CH](C(=O)O)C(C)C; Sar = CNCC(=O)O
Tests used:
Test in all cases: inhibition of tumour cell growth, NCI panel, 48 h
[1] = tested on: SN12C renal
[2] = tested on: M14 melanoma
[3] = tested on: SK-OV-3 ovarian
[4] = tested on: A549 NSCLC
[5] = tested on: BT-549 breast
[6] = tested on: SF-295 CNS
[7] = tested on: IGROV1 ovarian
[8] = tested on: PC-3 prostate
[9] = tested on: ACHN renal
[10] = tested on: SNB-19 CNS
[11] = tested on: SK-MEL-28 melanoma
[12] = tested on: 786-0 renal
[13] = tested on: OVCAR-5 ovarian
[14] = tested on: MDA-N
[15] = tested on: UACC-62 melanoma
[16] = tested on: HCC-2998 colon
[17] = tested on: U251 CNS
[18] = tested on: HCT-15 colon
[19] = tested on: UO-31 renal
[20] = tested on: MOLT-4 leukemia
[21] = tested on: SK-MEL-5 melanoma
[22] = tested on: HOP-62 NSCLC
[23] = tested on: HT29 colon
[24] = tested on: HL-60(TB) leukemia
[25] = tested on: OVCAR-3 ovarian
[26] = tested on: DU-145 prostate
[27] = tested on: HS 578T breast
[28] = tested on: OVCAR-4 ovarian
[29] = tested on: NCI-H226 lung
[30] = tested on: NCI-H522 lung
[31] = tested on: COLO 205 colon
[32] = tested on: SW-620 colon
[33] = tested on: SR leukemia
[34] = tested on: T-47D breast
[35] = tested on: CAKI-1 renal
[36] = tested on: SF-268 CNS
[37] = tested on: LOX IMVI melanoma
[38] = tested on: HOP-92 NSCLC
[39] = tested on: HCT-116 colon
[40] = tested on: MDA-MB-231 breast
[41] = tested on: TK-10 renal
[42] = tested on: MALME-3M melanoma
[43] = tested on: MDA-MB-435
[44] = tested on: EKVX NSCLC
[45] = tested on: RPMI-8226 leukemia
[46] = tested on: NCI-H460 lung
[47] = tested on: K-562 leukemia
[48] = tested on: A498 renal
[49] = tested on: SK-MEL-2 melanoma
[50] = tested on: NCI-H23 lung
[51] = tested on: KM12 colon
[52] = tested on: UACC-257 melanoma
[53] = tested on: SNB-75 CNS
[54] = tested on: CCRF-CEM leukemia
[55] = tested on: NCI/ADR-RES ovarian
[56] = tested on: SF-539 CNS
[57] = tested on: RXF 393 renal
[58] = tested on: MCF7 breast
[59] = tested on: OVCAR-8 ovarian

Cc1cccc(/C=C2\CCCCCC2=O)c1
TGI [1]: > 100 µM | TGI [2]: > 100 µM | TGI [3]: > 100 µM | TGI [4]: > 100 µM | TGI [5]: > 100 µM | TGI [6]: > 100 µM | TGI [7]: > 100 µM | TGI [8]: > 100 µM | TGI [9]: > 100 µM | TGI [10]: > 100 µM | TGI [11]: > 100 µM | TGI [12]: > 100 µM | TGI [13]: > 100 µM | TGI [14]: > 100 µM | TGI [15]: > 100 µM | TGI [16]: > 100 µM | TGI [17]: > 100 µM | TGI [18]: > 100 µM | TGI [19]: > 100 µM | TGI [20]: > 100 µM | TGI [21]: > 100 µM | TGI [22]: > 100 µM | TGI [23]: > 100 µM | TGI [24]: > 100 µM | TGI [25]: > 100 µM | TGI [26]: > 100 µM | TGI [27]: > 100 µM | TGI [28]: > 100 µM | TGI [29]: > 100 µM | TGI [30]: > 100 µM | TGI [31]: > 100 µM | TGI [32]: > 100 µM | TGI [33]: > 100 µM | TGI [34]: > 100 µM | TGI [35]: > 100 µM | TGI [36]: > 100 µM | TGI [37]: > 100 µM | TGI [38]: > 100 µM | TGI [39]: > 100 µM | TGI [40]: > 100 µM | TGI [41]: > 100 µM | TGI [42]: > 100 µM | TGI [43]: > 100 µM | TGI [44]: > 100 µM | TGI [45]: > 100 µM | TGI [46]: > 100 µM | TGI [47]: > 100 µM | TGI [48]: > 100 µM | TGI [49]: > 100 µM | TGI [50]: > 100 µM | TGI [51]: > 100 µM | TGI [52]: > 100 µM | TGI [53]: > 100 µM | TGI [54]: 82.8 µM

CCC(C)C1NC(=O)C(NC(=O)c2c3nc4c(C(=O)NC5C(=O)NC(C(C)C)C(=O)N6CCCC6C(=O)N(C)CC(=O)N(C)C(C(C)C)C(=O)OC5C)ccc(C)c4oc-3c(C)c(=O)c2N)C(C)OC(=O)C(C(C)C)N(C)C(=O)CN(C)C(=O)C2CCCN2C1=O (configuration not stated) (I: TIP[Sar][NMeV] / II: TVP[Sar][NMeV]; ester I:1-I:C, II:1-II:C; linker I:N-II:N via Actinocin(1to9); configuration not given here)
TGI [1]: 0.498 µM | TGI [2]: 0.161 µM | TGI [3]: 13.2 µM | TGI [4]: 13.9 µM | TGI [5]: 0.0627 µM | TGI [7]: 0.906 µM | TGI [8]: 0.0947 µM and 0.0301 µM | TGI [9]: 0.0377 µM and 0.0261 µM | TGI [10]: 1.23 µM | TGI [11]: 0.0409 µM | GI50 [55]: 0.0239 µM | TGI [55]: 3.56 µM | TGI [12]: 0.141 µM and 0.669 µM | TGI [13]: 0.0132 µM | TGI [14]: 0.0244 µM | TGI [17]: 10.1 µM | TGI [18]: 14.2 µM | TGI [20]: 0.0667 µM and 0.0163 µM | TGI [21]: 0.111 µM | TGI [56]: 0.107 µM | TGI [24]: 0.163 µM | TGI [26]: 0.71 µM | TGI [27]: 0.363 µM | TGI [28]: 0.739 µM | TGI [29]: 0.153 µM | TGI [30]: 0.0158 µM | TGI [31]: 0.0163 µM | TGI [33]: 0.404 µM | TGI [57]: 0.0102 µM | TGI [58]: > 100 µM | TGI [38]: 0.0476 µM | TGI [39]: 4.8 µM | TGI [40]: 0.0753 µM and 0.261 µM | TGI [41]: 17.9 µM | TGI [42]: 0.028 µM | TGI [43]: 0.0302 µM | TGI [44]: 0.179 µM and 0.0919 µM | TGI [45]: 0.0323 µM | TGI [47]: 0.105 µM | TGI [48]: 0.00433 µM | TGI [49]: 0.111 µM | TGI [50]: 0.0553 µM and 0.0126 µM | TGI [51]: 0.191 µM | TGI [52]: 0.0266 µM | TGI [53]: 0.579 µM

CC1(C)O[C@@H](CP(c2ccc3ccccc3c2)c2ccc3ccccc3c2)[C@H](CP(c2ccc3ccccc3c2)c2ccc3ccccc3c2)O1
TGI [1]: > 100 µM | TGI [2]: > 100 µM | TGI [3]: > 100 µM | TGI [4]: > 100 µM | TGI [5]: > 100 µM | TGI [6]: > 100 µM | TGI [7]: > 100 µM | TGI [8]: > 100 µM | TGI [9]: > 100 µM | TGI [10]: > 100 µM | TGI [11]: > 100 µM | TGI [55]: > 100 µM | TGI [12]: > 100 µM | TGI [13]: > 100 µM | TGI [14]: > 100 µM | TGI [15]: > 100 µM | TGI [16]: > 100 µM | TGI [17]: > 100 µM | TGI [18]: > 100 µM | TGI [19]: > 100 µM | TGI [20]: > 100 µM | TGI [21]: > 100 µM | TGI [22]: > 100 µM | TGI [23]: > 100 µM | TGI [25]: > 100 µM | TGI [26]: > 100 µM | TGI [28]: > 100 µM | TGI [29]: > 100 µM | TGI [30]: > 100 µM | TGI [31]: > 100 µM | TGI [32]: > 100 µM | TGI [33]: > 100 µM | TGI [57]: > 100 µM | TGI [34]: > 100 µM | TGI [58]: > 100 µM | TGI [35]: > 100 µM | TGI [36]: > 100 µM | TGI [37]: > 100 µM | TGI [39]: > 100 µM | TGI [40]: > 100 µM | TGI [41]: > 100 µM | TGI [43]: > 100 µM | TGI [44]: > 100 µM | TGI [46]: > 100 µM | TGI [47]: > 100 µM | TGI [49]: > 100 µM | TGI [50]: > 100 µM | TGI [51]: > 100 µM | TGI [59]: > 100 µM | TGI [52]: > 100 µM | TGI [53]: > 100 µM | TGI [54]: > 100 µM

NC(N)=N/N=C/c1c(-c2ccc(Cl)cc2)nc2n1CCS2
TGI [1]: 29.5 µM | TGI [2]: 11.1 µM | TGI [3]: 27 µM | TGI [4]: 22.2 µM | TGI [5]: 28 µM | TGI [6]: 11.3 µM | TGI [7]: 27.5 µM | TGI [8]: 18.2 µM | TGI [9]: 27 µM | TGI [10]: 32.6 µM | TGI [11]: 26.8 µM | TGI [55]: 32.6 µM | TGI [12]: 17.1 µM | TGI [13]: 28.3 µM | TGI [14]: 23.3 µM | TGI [15]: 24.6 µM | TGI [16]: 8.39 µM | TGI [17]: 28.5 µM | TGI [18]: 28.8 µM | TGI [19]: 25.5 µM | TGI [20]: 17.3 µM | TGI [21]: 10.3 µM | TGI [22]: 27.4 µM | TGI [56]: 25 µM | TGI [23]: 21.1 µM | TGI [24]: > 100 µM | TGI [25]: 22.1 µM | TGI [26]: 25.5 µM | TGI [27]: 58.8 µM | TGI [28]: 28.6 µM | TGI [29]: 41 µM | TGI [30]: 28.7 µM | TGI [31]: 14.3 µM | TGI [32]: 21 µM | TGI [57]: 24.5 µM | TGI [34]: 34.8 µM | TGI [58]: 27.9 µM | TGI [35]: 28 µM | TGI [36]: 25.3 µM | TGI [37]: 18 µM | TGI [38]: 22.6 µM | TGI [39]: 16.4 µM | TGI [41]: 29.4 µM | TGI [42]: 30.9 µM | TGI [43]: 25.6 µM | TGI [44]: 30.4 µM | TGI [45]: 26.9 µM | TGI [46]: 26.9 µM | TGI [47]: 20 µM | TGI [48]: 26.4 µM | TGI [49]: 24.2 µM | TGI [51]: 24.2 µM | TGI [59]: 29.5 µM | TGI [52]: 28 µM | TGI [53]: 26.2 µM | TGI [54]: 16.9 µM

Reference: PubChem BioAssay (NCI)
